US11275071B2, “Sensor dyes for real-time sensing of metal ions in aqueous environments” (UWM Research Foundation, Inc., priority 2015, dated 2022)

Key:
[1] = Metal response of PAN-7OH, absorbance at pH 7; type: binding; conditions: 25 μM PAN-7OH, 250 μM metal ion, pH 7 buffer, 2 mM Triton X-100
Experimental: (§1) Solutions were made containing 25 μM PAN-7OH and 250 μM metal ion (excess amount) in pH 7 buffer containing 2 mM Triton X-100.

[2] = Metal response of PAN-7OH, absorbance at pH 7; type: binding; conditions: 25 μM PAN-7OH, 250 μM metal ion, pH 7 buffer, 2 mM Triton X-100; remark: listed apart in the source
Experimental: as §1

[3] = Metal response of PAN-7OH, absorbance at pH 7; type: binding; conditions: 25 μM PAN-7OH, 250 μM metal ion, pH 7 buffer, 2 mM Triton X-100; remark: listed apart in the source
Experimental: as §1

[4] = Metal response of PAN-7OH, absorbance at pH 7; type: binding; conditions: 25 μM PAN-7OH, 250 μM metal ion, pH 7 buffer, 2 mM Triton X-100; remark: listed apart in the source
Experimental: as §1

[5] = Metal response of PAN-7OH, absorbance at pH 7; type: binding; conditions: 25 μM PAN-7OH, 250 μM metal ion, pH 7 buffer, 2 mM Triton X-100; remark: listed apart in the source
Experimental: as §1

[6] = Metal response of PAN-7OH, absorbance at pH 7; type: binding; conditions: 25 μM PAN-7OH, 250 μM metal ion, pH 7 buffer, 2 mM Triton X-100; remark: listed apart in the source
Experimental: as §1

[7] = Metal response of PAN-7OH, absorbance at pH 7; type: binding; conditions: 25 μM PAN-7OH, 250 μM metal ion, pH 7 buffer, 2 mM Triton X-100; remark: listed apart in the source
Experimental: as §1

[8] = Metal response of PAN-7OH, absorbance at pH 7; type: binding; conditions: 25 μM PAN-7OH, 250 μM metal ion, pH 7 buffer, 2 mM Triton X-100; remark: listed apart in the source
Experimental: as §1

[9] = Metal response of PAN-7OH, absorbance at pH 7; type: binding; conditions: 25 μM PAN-7OH, 250 μM metal ion, pH 7 buffer, 2 mM Triton X-100; remark: listed apart in the source
Experimental: as §1

[10] = Metal response of PAN-7OH, absorbance at pH 7; type: binding; conditions: 25 μM PAN-7OH, 250 μM metal ion, pH 7 buffer, 2 mM Triton X-100; remark: listed apart in the source
Experimental: as §1

[11] = Metal response of PAN-7OH, absorbance at pH 7; type: binding; conditions: 25 μM PAN-7OH, 250 μM metal ion, pH 7 buffer, 2 mM Triton X-100; remark: listed apart in the source
Experimental: as §1

[12] = Metal response of PAN-7OH, absorbance at pH 7; type: binding; conditions: 25 μM PAN-7OH, 250 μM metal ion, pH 7 buffer, 2 mM Triton X-100; remark: listed apart in the source
Experimental: as §1

[13] = Metal response of PAN-7OH, absorbance at pH 7; type: binding; conditions: 25 μM PAN-7OH, 250 μM metal ion, pH 7 buffer, 2 mM Triton X-100; remark: listed apart in the source
Experimental: as §1

[14] = Protonation states of free PAN-7OH, pKA; type: physicochemical; conditions: free dye; site 1-OH (Metal Binding)
Experimental: The acid dissociation constants (pKA) and spectral profiles were determined for PAN-70H. PAN-7OH has three protonation sites: The heterocyclic nitrogen in the pyridyl moiety, and the two hydroxyl groups on the naphthalene ring. […] The latter group can potentially be used for covalent attachment of the sensor to a substrate.
The buffer reagents were treated with Chelex-100 to remove trace metal impurities. The samples were prepared containing 25 μM PAN-7OH in a 0.1 M pH buffer containing 2 mM Triton X-100 surfactant.
The data was analyzed using ReactLab Equilibria to determine the resulting pKA values. PAN-7OH has three protonation sites, so four species were used for the analysis model. The pKA values were assigned using values from well-known molecules with a similar structure. […] No error propagation calculations were performed here.

[15] = Protonation states of Zn-(PAN-7OH) complexes

pKA [14]: 12.258 | pH at which the Zn-(PAN-7OH) complexes decomposed, strongly alkaline conditions [15]: > 12 pH | pH at which the Zn-(PAN-7OH) complexes decomposed, weakly acidic conditions [15]: < 6 pH | Acidic Dissociation ([15]; Zn(PAN-7OH)2H2 decomposition under acidic conditions, midpoint of species distribution curve): 5.272 | Alkaline Dissociation ([15]; Zn(PAN-7OH)2^2− decomposition, zinc hydroxide formation, strongly alkaline conditions, midpoint of curve): 13.164 | Complex pKA ([15]; non-binding hydroxyl group in the Zn-(PAN-7OH) complex, 20 μM PAN-7OH, 20 μM zinc): 10.449
Structure (SMILES): Oc1ccc2ccc(O)c(N=Nc3ccccn3)c2c1 [PAN-7OH]
absorbance change relative to the free dye [1]: red-shifted absorbance | absorbance change relative to the free dye ([1]; minor): red-shifted absorbance | absorbance change relative to the free dye [2]: red-shifted absorbance | absorbance change relative to the free dye [3]: red-shifted absorbance | absorbance change relative to the free dye [4]: red-shifted absorbance | absorbance change relative to the free dye [5]: red-shifted absorbance | absorbance change relative to the free dye [6]: red-shifted absorbance | absorbance change relative to the free dye [7]: blue-shifted absorbance | absorbance change relative to the free dye [8]: blue-shifted absorbance | absorbance change relative to the free dye [9]: did not exhibit an appreciable absorbance change | absorbance change relative to the free dye [10]: did not exhibit an appreciable absorbance change | absorbance change relative to the free dye [11]: did not exhibit an appreciable absorbance change | absorbance change relative to the free dye [12]: did not exhibit an appreciable absorbance change | absorbance change relative to the free dye [13]: did not exhibit an appreciable absorbance change
